Test results as given in US11506670B2, “Method of genome-wide direct identification of electrophile-sensing targets” (Cornell University, priority 2018, dated 2022).

Key:
PTEN = biological target: T1, PTEN (Homo sapiens, UniProt P60484); assay: Immunofluorescence of endogenous PIP3 after PTEN-targeted T-REX; assay type: cell-based; conditions: T-REX HNEylation of Halo-PTEN
T1 construct: host or cells: HEK-293
Description: (i) Transient transfection using TransIT-2020. Split HEK-293 cells in four 35 mm glass-bottom dishes. For each dish, seeding ˜4×10^5 cells in 2.0 mL total cell culture medium should result in cells that are ˜40-50% confluent after 24 h, which represents optimal cell density. Too low and too high cell density may result in excessive cell death or poor transfection efficiency respectively. Higher cell density is also not optimal for imaging.
(ii) Transfect each plate with 2000 ng of Halo-PTEN plasmid. Transfect with TransIT-2020 following the manufacturer's protocol.
(iv) Treatment of cells with T-REX™ delivery photocaged precursor, photo-uncaging and cell fixing (TIMING: 8 hours). Treat the cells with photocaged precursor as described in Section 2, Step 39A.
(v) After shining light on the sample, incubate the plates at 37° C. for 10 hours. […]
(xviii) Images were analyzed using ImageJ software (NIH). Briefly, the average green fluorescence intensity (intensity of signal due to PIP3) for each cell was determined by drawing a free hand circle around the image. This was repeated for each condition such that 50-100 cells were analyzed each time from multiple different frames. A global average of the green fluorescence intensity was calculated for each condition, then these values were plotted and analyzed using prism. […]

HaloTag = assay: Reaction of purified recombinant HaloTag with HNE, in-gel fluorescence; assay type: biochemical; conditions: 0-16 equiv., 20-min incubation
Description: HEK293T cells expressing HaloTag alone treated under standard T-REX™ delivery conditions with Ht-PreHNE were exposed to UV light (0.3 mW/cm^2, 365 nm) for the indicated time periods at which point the cells were harvested, lysed, and subjected to Click coupling and in-gel fluorescence analysis followed by western blot. Error bars designate SD (N=3). […] Purified recombinant HaloTag was treated with either the photocaged precursor Ht-PreHNE (FIG. 17, inset, and FIG. 29) (2 equiv., lane a, positive control), or directly with reactive electrophile HNE (FIG. 29) (0, 2, 4, 8, 16 equiv., lane b, c, d, e, f, respectively). After 20-min incubation, the samples were analyzed by in-gel fluorescence. M, molecular weight ladder.

Ube2N = biological target: T2, Ube2N (Homo sapiens, UniProt P61088); assay: Biotin azide/streptavidin pulldown of HNEylated proteins from mammalian lysate; assay type: cell-based; conditions: HEK293T, Halo-(FLAG)-Ube2V2 and HA-Ube2N
T2 construct: expressed in transfected cells; host or cells: HEK 293T
T2 sequence (P61088 whole entry): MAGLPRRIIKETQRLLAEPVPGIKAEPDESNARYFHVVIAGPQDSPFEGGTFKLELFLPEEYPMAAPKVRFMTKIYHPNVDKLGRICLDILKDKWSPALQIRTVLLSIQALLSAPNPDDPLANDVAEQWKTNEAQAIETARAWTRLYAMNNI
T2 sequence (Q15819 whole entry partner): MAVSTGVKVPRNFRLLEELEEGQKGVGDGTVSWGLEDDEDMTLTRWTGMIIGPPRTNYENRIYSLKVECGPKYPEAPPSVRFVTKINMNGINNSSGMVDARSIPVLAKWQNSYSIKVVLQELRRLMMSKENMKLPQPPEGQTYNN
Description: HEK 293T cells were seeded in 60 cm^2 plate. After the cells reached 60% confluence (˜18-24 h), the old media were replaced with fresh 8 mL complete media. Cells were transfected with 7.5 μg of the designated plasmids encoding the HaloTag fusion gene and 30 μL PEI (1 mg/mL) in 600 μL in Opti-MEM media for 24-36 h after which the cells were treated with 25 μM Ht-PreHNE or without alkyne (control) for 2.5 h. Rinsing and light shining protocol were as described above. Cells were harvested, washed twice with chilled 1× DPBS and flash frozen.
Mammalian cell lysis was performed in 200 μL of lysis buffer containing in final concentrations 50 mM HEPES (pH 7.6), 150 mM NaCl, 1% Nonidet P-40 and 1× Roche cOmplete, mini, EDTA-free protease inhibitor cocktail by rapid freeze-thaw (×3). Lysate was clarified by centrifugation at 18,000×g for 30 min at 4° C.
Total protein concentration from either mammalian cell lysate or zebrafish lysate was determined using Bradford assay with BSA as standard. The lysate was subsequently diluted to 2 mg/mL with a buffer made up of 50 mM HEPES (pH 7.6) and 0.3 mM TCEP, and subjected to Click reaction with biotin azide for 30 min at 37° C. The final concentrations of each components were: 1% SDS, 5% t-BuOH, 200 μM Biotin azide, 2 mM TCEP, 0.9 mM CuSO4 and 0.1 mM Cu(TBTA). The lysate proteins were precipitated by adding 4 volumes of EtOH pre-chilled at −20° C. […]

T1 sequence (P60484 whole entry): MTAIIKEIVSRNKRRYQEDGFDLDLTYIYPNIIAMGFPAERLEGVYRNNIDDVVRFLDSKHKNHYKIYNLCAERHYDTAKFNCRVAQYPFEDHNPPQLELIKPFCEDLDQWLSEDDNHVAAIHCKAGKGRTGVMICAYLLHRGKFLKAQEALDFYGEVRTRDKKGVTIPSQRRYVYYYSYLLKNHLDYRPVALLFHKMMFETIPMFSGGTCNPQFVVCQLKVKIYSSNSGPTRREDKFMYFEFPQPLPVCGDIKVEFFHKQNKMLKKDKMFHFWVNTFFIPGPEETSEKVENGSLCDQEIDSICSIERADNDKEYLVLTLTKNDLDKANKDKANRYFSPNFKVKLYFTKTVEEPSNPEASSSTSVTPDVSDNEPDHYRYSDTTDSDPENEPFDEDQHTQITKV

## CCCCCC(O)/C=C/C=O (stereo not drawn) [HNE, 4-hydroxynonenal]
PTEN
  endogenous PIP3 level: upregulation of PIP3
HaloTag
  reaction of HaloTag with HNE: does not react
Ube2N
  HNEylation of Ube2N during T-REX delivery to Ube2V2 (affinity capture): no detectable HNEylation of Ube2N
